Data published in patent US9199943B2, “2-(poly-substituted aryl)-6-amino-5-halo-4-pyrimidinecarboxylic acids and their use as herbicides” (Dow AgroSciences, LLC., priority 2006, dated 2015).

What was measured:
[1] = tested on: MOOVA = Monochoria vaginalis; test: Herbicidal activity in transplanted paddy rice, Monochoria vaginalis; type: in vivo; details: Pontederia vaginalis, 480 h, water-injected paddy, after 20-22 days; for pest or weed control at 17.5 g/ha: 17.5 g ai/ha; for pest or weed control at 70 g/ha: 70 g ai/ha; for pest or weed control at 140 g/ha: 140 g ai/ha; for pest or weed control at 35 g/ha: 35 g ai/ha
Experimental: Weed seeds or nutlets of the desired test plant species were planted in puddled soil (mud) prepared by mixing a non-sterilized mineral soil (28 percent silt, 18 percent clay, and 54 percent sand, with a pH of about 7.3 to 7.8 and an organic matter content of about 1.0 percent) and water at a ratio of 100 kg of soil to 19 L of water. The prepared mud was dispensed in 250 mL aliquots into 480 mL non-perforated plastic pots with a surface area of 91.6 square centimeters leaving a headspace of 3 centimeters in each pot. Rice seeds were planted in Sun Gro MetroMix® 306 planting mixture, which typically has a pH of 6.0 to 6.8 and an organic matter content of about 30 percent, in plastic plug trays. Seedlings at the second or third leaf stage of growth were transplanted into 650 mL of mud contained in 960 mL non-perforated plastic pots with a surface area of 91.6 square centimeters 4 days prior to herbicide application. The paddy was created by filling the 3 centimeter headspace of the pots with water. When required to ensure good germination and healthy plants, a fungicide treatment and/or other chemical or physical treatment was applied. The plants were grown for 4-14 days in a greenhouse with an approximate 14 hour photoperiod which was maintained at about 29° C. during the day and 26° C. during the night. Nutrients were added as Osmocote (17:6:10, N:P:K+minor nutrients) at 2 g (grams) per cup. Water was added on a regular basis to maintain the paddy flood, and supplemental lighting was provided with overhead metal halide 1000-Watt lamps as necessary. The plants were employed for testing when they reached the second or third true leaf stage. A weighed amount, determined by the highest rate to be tested, of each test compound was placed in a 120 mL glass vial and was dissolved in 20 mL of acetone to obtain concentrated stock solutions. […] The concentrated stock solutions obtained were diluted with 20 mL of an aqueous mixture containing 0.01% Tween 20 (v/v). Application rates of ½×, ¼×, ⅛× and 1/16× of the high rate were obtained by injecting an appropriate amount of the stock solution into the aqueous layer of the paddy. Control plants were treated in the same manner with the solvent blank. The treated plants and control plants were placed in a greenhouse as described above and water was added as needed to maintain a paddy flood. After 20-22 days, the condition of the test plants as compared with that of the untreated plants was determined visually and scored on a scale of 0 to 100 percent where 0 corresponds to no injury and 100 corresponds to complete kill.

[2] = tested on: ABUTH = velvetleaf (Abutilon theophrasti); test: General postemergence herbicidal activity, velvetleaf; type: in vivo; details: Abutilon theophrasti, post-emergence, 336 h; post-emergent, 140 g ai/ha, visual score after 14 days (0 no injury, 100 complete kill)
Experimental: Seeds or nutlets of the desired test plant species were planted in Sun Gro MetroMix® 306 planting mixture, which typically has a pH of 6.0 to 6.8 and an organic matter content of about 30 percent, in plastic pots with a surface area of 64 square centimeters. When required to ensure good germination and healthy plants, a fungicide treatment and/or other chemical or physical treatment was applied. The plants were grown for 7-21 days in a greenhouse with an approximate 15 hour photoperiod which was maintained at about 23-29° C. during the day and 22-28° C. during the night. Nutrients and water were added on a regular basis and supplemental lighting was provided with overhead metal halide 1000-Watt lamps as necessary. The plants were employed for testing when they reached the first or second true leaf stage.
A weighed amount, determined by the highest rate to be tested, of each test compound was placed in a 25 mL glass vial and was dissolved in 4 mL of a 97:3 v/v (volume/volume) mixture of acetone and dimethyl sulfoxide (DMSO) to obtain concentrated stock solutions. […] The concentrated stock solutions obtained were diluted with 20 mL of an aqueous mixture containing acetone, water, isopropyl alcohol, DMSO, Atplus 411F crop oil concentrate, and Triton X-155 surfactant in a 48.5:39:10:1.5:1.0:0.02 v/v ratio to obtain spray solutions containing the highest application rates. Additional application rates were obtained by serial dilution of 12 mL of the high rate solution into a solution containing 2 mL of 97:3 v/v (volume/volume) mixture of acetone and dimethyl sulfoxide (DMSO) and 10 mL of an aqueous mixture containing acetone, water, isopropyl alcohol, DMSO, Atplus 411F crop oil concentrate, and Triton X-155 surfactant in a 48.5:39:10:1.5:1.0:0.02 v/v ratio to obtain ½×, ¼×, ⅛× and 1/16× rates of the high rate. Compound requirements are based upon a 12 mL application volume at a rate of 187 L/ha. Formulated compounds were applied to the plant material with an overhead Mandel track sprayer equipped with a 8002E nozzles calibrated to deliver 187 L/ha over an application area of 0.503 square meters at a spray height of 18 inches (43 cm) above the average plant canopy height. Control plants were sprayed in the same manner with the solvent blank.
The treated plants and control plants were placed in a greenhouse as described above and watered by sub-irrigation to prevent wash-off of the test compounds. After 14 days, the condition of the test plants as compared with that of the untreated plants was determined visually and scored on a scale of 0 to 100 percent where 0 corresponds to no injury and 100 corresponds to complete kill.
By applying the well-accepted probit analysis as described by J. Berkson in Journal of the […], 48, 565 (1953) and by D. Finney in “Probit Analysis” Cambridge University Press (1952), the above data can be used to calculate GR50 and GR80 values, which are defined as growth reduction factors that correspond to the effective dose of herbicide required to kill or control 50 percent or 80 percent, respectively, of a target plant.

Compound `CCOc1c(Cl)ccc(-c2nc(N)c(Cl)c(C(=O)OC)n2)c1F` [Compound 1, 6-amino-5-chloro-2-(4-chloro-3-ethoxy-2-fluorophenyl)-pyrimidine-4-carboxylic acid methyl ester] has a pest or weed control at 17.5 g/ha [1] of 100% and a pest or weed control at 140 g/ha [2] of 100%.
For `COC(=O)c1nc(-c2c(F)cc(Cl)c(OC)c2F)nc(N)c1Cl` [Compound 2, 6-amino-5-chloro-2-(4-chloro-2,6-difluoro-3-methoxy-phenyl)pyrimidine-4-carboxylic acid methyl ester], the pest or weed control at 70 g/ha [1] was 100% and the pest or weed control at 140 g/ha [2] was 90%.
For `COC(=O)c1nc(-c2ccc(Cl)c(OC)c2F)nc(N)c1Cl` [Compound 3, 6-amino-5-chloro-2-(4-chloro-2-fluoro-3-methoxyphenyl)-pyrimidine-4-carboxylic acid methyl ester], the pest or weed control at 17.5 g/ha [1] was 100% and the pest or weed control at 140 g/ha [2] was 100%.
`COC(=O)c1nc(-c2ccc(Cl)c(OC)c2Cl)nc(N)c1Cl` [Compound 6, 6-Amino-5-chloro-2-(2,4-dichloro-3-methoxyphenyl)pyrimidine-4-carboxylic acid methyl ester] gave a pest or weed control at 17.5 g/ha [1] of 100% and a pest or weed control at 140 g/ha [2] of 95%.
Compound `COC(=O)c1nc(-c2ccc(Cl)c(C(F)F)c2F)nc(N)c1Cl` [Compound 7, 6-Amino-5-chloro-2-(4-chloro-3-difluoromethyl-2-fluorophenyl)pyrimidine-4-carboxylic acid methyl ester] has a pest or weed control at 140 g/ha [1] of 100% and a pest or weed control at 140 g/ha [2] of 80%.
`COC(=O)c1nc(-c2ccc(Cl)c(N(C)C)c2F)nc(N)c1Cl` [Compound 8, 6-Amino-5-chloro-2-(4-chloro-3-dimethylamino-2-fluorophenyl)pyrimidine-4-carboxylic acid methyl ester] showed a pest or weed control at 35 g/ha [1] of 100% and a pest or weed control at 140 g/ha [2] of 100%.
`COC(=O)c1nc(-c2ccc3c(c2F)OCO3)nc(N)c1Cl` [Compound 9, 6-Amino-5-chloro-2-(4-fluorobenzo[1,3]dioxol-5-yl)pyrimidine-4-carboxylic acid methyl ester] was tested, and the pest or weed control at 35 g/ha [1] was 99% and the pest or weed control at 140 g/ha [2] was 95%.
`COC(=O)c1nc(-c2ccc(Cl)c(OCC(F)F)c2F)nc(N)c1Cl` [Compound 10, 6-Amino-5-chloro-2-[4-chloro-3-(2,2-difluoroethoxy)-2-fluorophenyl]-pyrimidine-4-carboxylic acid methyl ester] was tested, and the pest or weed control at 140 g/ha [1] was 100% and the pest or weed control at 140 g/ha [2] was 75%.
`COC(=O)c1nc(-c2ccc(Cl)c(OC)c2F)nc(N)c1Br` [Compound 13, 6-amino-5-bromo-2-(4-chloro-2-fluoro-3-methoxyphenyl)-pyrimidine-4-carboxylic acid methyl ester] was tested, and the pest or weed control at 70 g/ha [1] was 100% and the pest or weed control at 140 g/ha [2] was 100%.
